Measurements reported in US11352400B2, “PI3K gamma inhibitor peptide for treatment of respiratory system diseases” (Kither Biotech S.r.I., priority 2014, dated 2022).

Columns and labels:
[1] = target: T1, association of PI3Kγ with PKA RII (Homo sapiens, UniProt P13861); details: in vitro, previous study (1); cited from earlier work
T1 construct: the regulatory subunit of PKA (PKA RII) was immunoprecipitated by incubating the protein extract; expressed in transfected cells; host or cells: HEK293 (ATCC CRL-1573) transfected with pcDNA3.1-PI3Kγ; PKA RII endogenous

[2] = test system: PI3Kγ-bound phosphodiesterase 3B; details: in vitro, previous study (1); cited from earlier work
ΔF508-CFTR = assay: Chloride currents in Ussing chamber, CuFi-1 cells; assay type: cell-based, human; details: CuFi-1 cells corrected with VX-809 (20 μM, 24 hours); P1 10 μM, VX-770 10 μM
Experimental: (§1) Human airway epithelial cell lines expressing a wild-type CFTR (NuLi-1) or with the ΔF508 mutation (CuFi-1) were purchased from ATCC (NuLi-1 product code: ATCC® CRL-4011™; CuFi-1 product code: ATCC® CRL-4013™). Cells were cultured in Dulbecco's Modified Eagle Medium (DMEM, Gibco, Carlsbad, Calif.) supplemented with 10% fetal bovine serum (FBS), 30 μg/mL of penicillin, 100 μg/mL of streptomycin and 300 μg/mL hygromycin B (Gibco, Carlsbad, Calif.).
(§2) To measure chloride currents in normal and ΔF508 primary human bronchial epithelial cells, cells were cultured on 1.12 cm^2 Snapwell inserts. Filters were mounted in Ussing chambers, and a chloride gradient was applied by incubating the cells in a basolateral high-chloride buffer containing (in mmol/L): 140 NaCl, 5 KCl, 0.36 K2HPO4, 0.44 KH2PO4, 1.3 CaCl2, 0.5 MgCl2, 4.2 NaHCO3, 10 HEPES, and 10 glucose, at pH 7.4 and an apical low-chloride buffer containing (in mmol/L): 133.3 Na-gluconate, 5 K-gluconate, 2.5 NaCl, 0.36 K2HPO4, 0.44 KH2PO4, 5.7 CaCl2, 0.5 MgCl2, 4.2 NaHCO3, 10 HEPES, and 10 mannitol, at pH 7.4. Buffers were aerated with a mixture of 95% O2 and 5% CO2 and the temperature was maintained at 37° C. during the experiment. […] After a stabilization period of 30 minutes, drugs were added at specific times, while the current was continuously recorded.

hBSMCs = assay: Measurements of calcium transients (Indo-1) in hBSMCs; assay type: cell-based, human; details: 50 μM, 30 minutes, 40 mM KCl depolarizing solution
Experimental: Cells were washed with a Tyrode solution containing (in mmol/L): 5 HEPES, 154 NaCl, 4 KCl, 2 CaCl2, 1 MgCl2, 5.5 D-glucose, at pH 7.35 and placed on an inverted microscope. Cells were kept in Tyrode solution and treated with a KCl depolarizing solution containing (in mmol/L): 5 HEPES, 118 NaCl, 40 KCl, 2 CaCl2, 1 MgCl2, 5.5 D-glucose, at pH 7.35. Calcium transients were analyzed as the ratio of fluorescence signals measured at 400 nm and 490 nm following excitation of Indo-1-AM-loaded cells at 350 nm. Experiments were recorded and analyzed with Igor® Software, using the functions added by Jason Rothman (Neuromatic, www.thinkrandom.com).

β2-AR/cAMP signaling = assay: FRET imaging of cAMP (ICUE3 probe) in hBSMCs after β2-AR stimulation; assay type: cell-based, human; details: hBSMCs pre-treated 50 μM, 30 minutes; ISO 100 nM + CGP-20712A 100 nM
Experimental: Human bronchial smooth muscle cells (hBSMCs) were transfected with a plasmid encoding the FRET probe for cAMP, ICUE3 (described in the U.S. Pat. No. 8,236,523 B2) (2), by electroporation with a Nucleofector device (AMAXA, Gaithersburg, Md.), according to the manufacturer's protocol. Briefly, 1×10^6 cells were re-suspended in 100 μL of nucleofection solution (VPI-1004, AMAXA, Gaithersburg, Md.), mixed with 1 μg of pcDNA3-ICUE3 (described in U.S. Pat. No. 8,236,523 B2), and subjected to electroporation in a nucleofection apparatus of Amaxa Biosystems (Program A-033). Live cell imaging experiments were performed at 24 hours after transfection.
Measurements of cAMP levels were performed on human bronchial smooth muscle cells (hBSMCs) that express the FRET probe ICUE3, as described previously (2). Briefly, cells were maintained in a K^+-Ringer solution containing (in mmol/L) 121.6 NaCl, 5.4 KCl, 1.8 MgCl2, 1.8 CaCl2, 4 NaHCO3, 0.8 NaH2PO4, 5 D-glucose, 5 sodium pyruvate, 10 HEPES, at pH 7.4. […] FRET efficiency was calculated using the “Method 3” provided by the Leica wizard application for FRET imaging and sensitized emission, according to which: EA(i)=B/A, where EA(i) is the apparent FRET efficiency; A and B are the intensities of the CFP channel and FRET, respectively. […]

wild-type CFTR = assay: Chloride currents in Ussing chamber, NuLi-1 cells; assay type: cell-based, human; details: peptide 10-30 μM, P1 30 μM
Experimental: as §1, §2

T1 sequence (P13861 whole entry): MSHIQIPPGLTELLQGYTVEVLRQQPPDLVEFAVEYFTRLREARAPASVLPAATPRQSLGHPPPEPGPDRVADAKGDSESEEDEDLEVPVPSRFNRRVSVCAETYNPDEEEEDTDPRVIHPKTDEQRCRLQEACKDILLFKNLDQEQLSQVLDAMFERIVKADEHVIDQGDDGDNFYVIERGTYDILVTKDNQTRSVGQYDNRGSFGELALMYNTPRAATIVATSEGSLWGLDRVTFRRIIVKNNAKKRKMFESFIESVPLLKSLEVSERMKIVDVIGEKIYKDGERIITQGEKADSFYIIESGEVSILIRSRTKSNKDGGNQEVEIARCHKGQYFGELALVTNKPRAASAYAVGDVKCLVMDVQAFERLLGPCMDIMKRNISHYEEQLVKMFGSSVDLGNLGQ

Row | Sequence | PKA anchoring (PI3Kγ-PKA interaction) [1] | activity of PI3Kγ-bound phosphodiesterase 3B [2] | CFTR activity in the presence of VX-770 (ΔF508-CFTR) | influx of Ca2+ induced by KCl (through VOCCs) (hBSMCs) | increase of cAMP accumulation following stimulation of β2-ARs (β2-AR/cAMP signaling) | CFTR-dependent Cl− currents (wild-type CFTR)
1 | KATHRSPGQIHLVQRHPPSEESQAF (homo sapiens) [SEQ ID No.: 1] | inhibits | decreases | – | – | – | –
2 | RQIKIWFQNRRMKWKK (Antennapedia penetratin 1) [P1 control peptide, cell-penetrating Penetratin 1 of Antennapedia, used as control peptide, reference compound] | – | – | did not change | unchanged | unchanged | did not change
